Measurements as given in patent publication US20250011368A1, “DLL3 TARGETING PEPTIDES AND CONSTRUCTS THEREOF” (MARIANA ONCOLOGY INC., priority 2023, published 2025).
Numbered stars: 1 amine (or outer) side, 2 acyl side, 3 side chain; on linkers, the order of the positions; unused ones are H or OH. Bridge positions count the residues as written; N and C are the ends. Square brackets hold non-standard residues; d marks the D form. Peptide text beside a SMILES is read from it. * marks the point of attachment. Ala(piperidin-4-yl) = O=C([C@H](CC1CCN([*:3])CC1)N[*:1])[*:2]; DOTA = O=C(O)CN1CCN(CC(=O)O)CCN(CC(=O)*)CCN(CC(=O)O)CC1; 2Nal = N[C@@H](Cc1ccc2ccccc2c1)C(=O)O; Lauroyl = CCCCCCCCCCCC(=O)*

What was measured:
human DLL3 = target: T1, human DLL3 (Homo sapiens, UniProt Q9NYJ7); experiment: Affinity determination by Surface Plasmon Resonance (SPR); format: binding; conditions: 25° C., biotinylated human DLL3 immobilized on streptavidin sensor chip, 1:1 binding model; read-out: SPR KD
T1 sequence (Q9NYJ7 27-618): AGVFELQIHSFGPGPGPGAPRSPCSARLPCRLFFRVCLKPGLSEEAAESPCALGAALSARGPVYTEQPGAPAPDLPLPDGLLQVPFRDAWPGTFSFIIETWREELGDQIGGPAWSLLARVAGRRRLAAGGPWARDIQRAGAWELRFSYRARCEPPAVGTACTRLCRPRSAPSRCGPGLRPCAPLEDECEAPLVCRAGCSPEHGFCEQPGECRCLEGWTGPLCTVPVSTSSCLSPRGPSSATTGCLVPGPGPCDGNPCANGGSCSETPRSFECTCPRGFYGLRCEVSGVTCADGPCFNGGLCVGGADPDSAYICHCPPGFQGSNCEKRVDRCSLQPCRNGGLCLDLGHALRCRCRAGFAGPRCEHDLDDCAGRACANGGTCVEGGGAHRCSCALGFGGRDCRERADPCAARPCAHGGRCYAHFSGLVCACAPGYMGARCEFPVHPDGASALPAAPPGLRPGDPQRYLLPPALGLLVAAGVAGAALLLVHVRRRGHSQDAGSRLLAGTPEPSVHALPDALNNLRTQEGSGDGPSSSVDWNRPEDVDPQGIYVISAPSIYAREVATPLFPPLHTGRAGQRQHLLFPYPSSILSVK
In short: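 Biotinylated human DLL3 was captured on a streptavidin chip with a reference surface. Compounds at several concentrations were injected at 100 μL/minute in phosphate buffer (137 mM NaCl, 2.7 mM KCl, 0.05% P20, 2% DMSO). Affinity and kinetics came from 1:1 model fits of the sensorgrams.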

CT26.DLL3 cells [1] = experiment: Cell binding (total uptake) of [177Lu]Lu-test peptide, CT26.DLL3 cells; format: cell-based; conditions: 1 hour at 37° C.
In short: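 CT26.DLL3 cells (5–25 million/condition) in 1% PBSA incubated 1 h at 37°C with [177Lu]Lu-labelled peptide (0.8 μCi in 300 μL), radiolabelled at pH ~5, 80°C. Cells pelleted, washed twice with cold PBS+1% BSA; bound and unbound fractions gamma-counted, uptake binned as ≤25%, 25–50%, >50%.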

CT26.DLL3 cells [2] = experiment: Internalization (out of bound fraction) of [177Lu]Lu-test peptide, CT26.DLL3 cells; format: cell-based; conditions: 1 hour at 37° C., glycine pH 2.5 wash
In short: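 [177Lu]Lu-peptide (labelled at 80 °C, pH ~5, 17-20 min) incubated with 5-25 million CT26.DLL3 cells in 1% PBSA, 0.8 μCi, 1 h at 37 °C. Surface-bound activity stripped twice with 50 mM glycine pH 2.5, 3 min; NaOH-solubilized cell activity gamma-counted as internalized fraction, binned ≤25%, 25-50%, >50%.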

SHP-77 cells [3] = experiment: Cell binding (total uptake) of [177Lu]Lu-test peptide, SHP-77 cells; format: cell-based; conditions: SHP77 cells, 1 hour at 37° C., bound fraction
Experimental: [^177Lu]LuCl3 was received from venders in HCl solution. For every mCi of [^177Lu]LuCl3 added to the reaction vial (1.5 mL Eppendorf vial), ammonium acetate buffer (0.2 M, pH 4.9, 100 μL, containing 1% w/v ascorbic acid and 6% v/v ethanol) and peptide conjugate (1 nmol). A peptide conjugate of the present disclosure is also referred to herein as a “chelator-peptide”. The pH of the solution was determined to be approximately 5 by using pH strips. The reaction vial was incubated at 80° C., 700 RPM for 17-20 minutes. A sample from the reaction was analyzed by RP-HPLC using an Agilent Infinity II 1260 HPLC to determine reaction completion and radiochemical purity of [^177Lu]Lu-chelator-peptide. HPLC conditions: Waters XBridge BEH C18 Column, 130 Å, 3.5 um, 4.6 mm×250 mm; mobile phase: Solvent A=water (with 0.1% formic acid), solvent B=acetonitrile (with 0.1% formic acid). Gradients: 25-45% B in 10 minutes, 45-65% B in 12 minutes, 65-90% in 6 minutes at a flow rate of 0.5 mL/minute. Required amounts of the product was formulated in 1% PBSA for cell studies.
The study was conducted using SHP-77, CT26.WT, and CT26.DLL3 cells (Table 7) Adherent cell studies: The cells were cultured in appropriate culture media (20 mL) in tissue culture treated T150 flasks at 37° C. and 5% CO2. Adherent cells were detached (60-70% confluent) using 5 mL Versene at 37° C. for 3 minutes. After confirming the viability using countess and count of detached cells using Trypan blue, the cells were centrifuged at 4° C. for 5 minutes (1,000 rpm). The cell pellet obtained was washed once with PBS and resuspended in 1% PBSA to obtain the desired cell concentration (5-25 million cells/mL).
Suspension cell studies: The cells were cultured in appropriate culture media (20 mL) in tissue culture treated T150 flasks at 37° C. and 5% CO2. After confirming the viability and count of detached cells using Trypan blue, the cells were centrifuged at 4° C. for 5 minutes (1,000 rpm). The cell pellet obtained was washed once with PBS and resuspended in 1% PBSA to obtain the desired cell concentration (5-25 million cells/mL).
Cell numbers used for the assay were in the range of 5 million cells/condition −25 million cells/condition.
Total uptake: Cells were incubated with 300 μL (0.8 μCi) of the incubation buffer (containing radiolabeled peptide [^177Lu] Lu-test peptide) for 1 hour at 37° C. (Table 8). Post incubation, the cells were pelleted and washed 2 times using cold PBS+1% BSA. The supernatant and washes were combined and counted together as “unbound fraction” in a gamma counter. The cells were then resuspended in 300 μL of 1% PBS+1% BSA and counted in the gamma counter as “bound fraction”.
In these Tables, “A” represents %≤25; “B” represents 25<%≤50; “C” represents %>50.

SHP-77 cells [4] = experiment: Internalization (out of bound fraction) of [177Lu]Lu-test peptide, SHP-77 cells; format: cell-based; conditions: SHP77 cells, 1 hour at 37° C., after 50 mM Glycine pH=2.5 wash
Experimental: [^177Lu]LuCl3 was received from venders in HCl solution. For every mCi of [^177Lu]LuCl3 added to the reaction vial (1.5 mL Eppendorf vial), ammonium acetate buffer (0.2 M, pH 4.9, 100 μL, containing 1% w/v ascorbic acid and 6% v/v ethanol) and peptide conjugate (1 nmol). A peptide conjugate of the present disclosure is also referred to herein as a “chelator-peptide”. The pH of the solution was determined to be approximately 5 by using pH strips. The reaction vial was incubated at 80° C., 700 RPM for 17-20 minutes. A sample from the reaction was analyzed by RP-HPLC using an Agilent Infinity II 1260 HPLC to determine reaction completion and radiochemical purity of [^177Lu]Lu-chelator-peptide. […]
Total uptake: Cells were incubated with 300 μL (0.8 μCi) of the incubation buffer (containing radiolabeled peptide [^177Lu] Lu-test peptide) for 1 hour at 37° C. […] The supernatant and washes were combined and counted together as “unbound fraction” in a gamma counter. The cells were then resuspended in 300 μL of 1% PBS+1% BSA and counted in the gamma counter as “bound fraction”.
Internalization: The resuspended cells in 300 μl of 1% PBSA and counted in the gamma counter as “bound fraction” were collected in 1.5 mL Eppendorf tube and pelleted. […] This was counted in the gamma counter as “internalized fraction”. […]

SHP-77 tumors = experiment: Ex vivo biodistribution of radiolabeled peptides in nude mice bearing SHP-77 tumors; conditions: [177Lu]Lu labelling, nude mice bearing SHP-77 tumors (n = 3), 24 hours post-injection
In short: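 Nude mice bearing SHP-77 xenografts (200-400 mm^3) or tumor-naïve mice (5-7 weeks) received an intravenous tail-vein bolus of [^177Lu]Lu-peptide and were euthanized at pre-set time points. Tissues were weighed and gamma-counted, with counts decay-corrected to injection time. Values are % IA/g per tissue from the injected activity of each mouse.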

Kd (human DLL3): 1 to 10 nM | kidney uptake (% IA/g) (SHP-77 tumors; kidney): C (0 < % IA/g ≤ 10 in kidney) | tumor uptake (% IA/g) (SHP-77 tumors; tumor): A (0 < % IA/g ≤ 5 in tumor)
SMILES: CCCCCCCCCCCC(=O)NCCCC[C@@H]1NC(=O)[C@H](Cc2ccc3ccccc3c2)NC(=O)[C@H](CC(N)=O)NC(=O)[C@H](CC2CCNCC2)NC(=O)[C@@H](NC(=O)[C@@H](NC(=O)[C@@H](NC(=O)[C@H](Cc2c[nH]c3ccccc23)NC(C)=O)[C@@H](C)O)[C@@H](C)CC)CSSC[C@@H](C(=O)N[C@@H](Cc2c[nH]c3ccccc23)C(=O)N2CCC[C@H]2C(=O)N[C@H](CCCCNC(=O)CN2CCN(CC(=O)O)CCN(CC(=O)O)CCN(CC(=O)O)CC2)C(N)=O)NC(=O)[C@H](CC(=O)O)NC1=O [compound 326, Ac-W-T-I-C(3)-[3-(4-piperidinyl)-Ala]-N-(2Nal)-K(C12)-D-C(3)-W-P-[D-Lys(DOTA)]-NH2] (Ac-WTIC[Ala(piperidin-4-yl)]N[2Nal]K(Lauroyl)DCWP[dK](DOTA)-NH2; disulfide 4-10)
% Binding (CT26.DLL3 cells [1]): A (%≤25) | % Internalization (out of bound fraction) (CT26.DLL3 cells [2]): C (%>50) | % Binding (SHP-77 cells [3]): A (%≤25) | % Internalization (out of bound fraction) (SHP-77 cells [4]): B (25<%≤50)
